Key:
[1] = biological target: T1, PgP (Homo sapiens, UniProt P08183); test: Transwell monolayer efflux assay in TREx-PgP MDCK cells; format: in vitro ADME
T1 construct: expressed in transfected cells; host or cells: MDCK cells, tetracycline-inducible
Protocol: Transwell monolayer efflux assays can be performed by transfecting MDCK cells with the tetracycline-inducible TREx-PgP expression vector. The cells optionally can be transfected with a nucleic acid encoding the transporter of interest. The transfected cells are seeded on polycarbonate filter membranes in transwell dishes and grown for 3-5 days, yielding a polarized monolayer with tight junctions between cells.

[2] = biological target: T2, hSVCT2 (Homo sapiens, UniProt Q9UGH3); test: hSVCT2 competition uptake assay in HEK-TREx-hSVCT2 cells; format: cell-based
T2 construct: expressed in transfected cells; host or cells: HEK-TREx cells, tetracycline-induced
T2 sequence (Q9UGH3 whole entry): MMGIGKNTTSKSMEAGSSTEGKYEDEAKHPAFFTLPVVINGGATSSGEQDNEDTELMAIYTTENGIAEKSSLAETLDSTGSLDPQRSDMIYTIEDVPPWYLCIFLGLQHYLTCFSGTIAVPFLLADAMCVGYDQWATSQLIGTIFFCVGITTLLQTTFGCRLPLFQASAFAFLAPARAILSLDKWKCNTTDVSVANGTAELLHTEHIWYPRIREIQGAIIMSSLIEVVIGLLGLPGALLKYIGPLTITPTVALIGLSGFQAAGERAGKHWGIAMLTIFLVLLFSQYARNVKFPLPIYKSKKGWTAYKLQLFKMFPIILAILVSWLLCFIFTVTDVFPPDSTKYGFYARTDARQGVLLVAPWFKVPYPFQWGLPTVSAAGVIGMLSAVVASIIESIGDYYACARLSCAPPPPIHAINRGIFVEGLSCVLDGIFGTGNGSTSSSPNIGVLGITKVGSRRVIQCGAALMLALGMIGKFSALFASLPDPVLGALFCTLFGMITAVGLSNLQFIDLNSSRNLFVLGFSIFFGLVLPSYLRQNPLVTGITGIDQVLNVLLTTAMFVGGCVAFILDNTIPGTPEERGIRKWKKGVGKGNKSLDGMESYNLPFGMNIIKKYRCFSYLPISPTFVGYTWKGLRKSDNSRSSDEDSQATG
Protocol: A modified competition uptake assay was developed to determine the ability of a test compound(s) to inhibit the uptake of radiolabeled substrates into […] induced to over-express hSVCT2. The results are stated as affinities (IC50). The competition uptake assay was prepared as follows: Compounds were prepared for assay by diluting a 100 mM stock concentration (in DMSO) to the appropriate working concentration. Typically, seven-point dose response curves were prepared starting at a final assay concentration of 1 mM and carrying out three-fold dilutions. […] Scintillation fluid (200 μl) (Optiphase Supermix (Perkin Elmer) was added to each well, and the plate was covered with a 96-well adhesive plate cover and placed on a shaker for 10 minutes. The plates were counted on a 96-well plate scintillation counter for 60 sec/well. The data were analyzed using a sigmoidal dose response curve-fitting program (Prism, GraphPad, Inc, San Diego, Calif.; equation: one-site competition). FIG. 2 depicts the results of a competition experiment using HEK-TREx-SVCT2 cells. ^3H-Ascorbic acid was used as the substrate and unlabeled ascorbic acid was used as the competitor. […] Non-specific uptake was determined by measuring the uptake into cells not induced to express the transporter (“no tet”). […]

[3] = biological target: T2, hSVCT2; test: hSVCT2 direct uptake assay in HEK-TREx-hSVCT2 cells (LC-MS-MS); format: cell-based; conditions: HEK-TREx-hSVCT2 cells induced to express hSVCT2
Protocol: A modified direct uptake assay was developed to determine the ability of test compounds to be transported into HEK-TREx cells induced to over-express hSVCT2. Four concentrations (bracketing the affinity as measured by competition assays) per compound were routinely tested. Non-specific uptake was determined by measuring the uptake into cells not induced to express the transporter (“no tet”).
The direct uptake assays were prepared as follows: Compounds were prepared for assay by diluting a 100 mM stock concentration (in DMSO or water, depending on compound solubility) to the appropriate working concentration. Typically, four concentrations bracketing the IC50 were tested. The highest test concentration for each compound was made in an Eppendorf tube and diluted into HBSS. The samples were robustly vortexed and centrifuged for 10 minutes at 13,200 rpm to spin down any precipitate. The supernatant from these samples (˜150 μl/well) was carefully removed and placed into six wells of row A (cmpd 1: A1-6; cmpd 2: A7-12) or row E (cmpd 3: E1-6; cmpd 4: E7-12) of a 96-well polypropylene “compound” plate. Three additional 2-fold dilutions were made in the subsequent rows (B-D or […]) in HBSS. […]

[4] = 2.5 nM, in the presence of 250 μM verapamil

T1 sequence (P08183 whole entry): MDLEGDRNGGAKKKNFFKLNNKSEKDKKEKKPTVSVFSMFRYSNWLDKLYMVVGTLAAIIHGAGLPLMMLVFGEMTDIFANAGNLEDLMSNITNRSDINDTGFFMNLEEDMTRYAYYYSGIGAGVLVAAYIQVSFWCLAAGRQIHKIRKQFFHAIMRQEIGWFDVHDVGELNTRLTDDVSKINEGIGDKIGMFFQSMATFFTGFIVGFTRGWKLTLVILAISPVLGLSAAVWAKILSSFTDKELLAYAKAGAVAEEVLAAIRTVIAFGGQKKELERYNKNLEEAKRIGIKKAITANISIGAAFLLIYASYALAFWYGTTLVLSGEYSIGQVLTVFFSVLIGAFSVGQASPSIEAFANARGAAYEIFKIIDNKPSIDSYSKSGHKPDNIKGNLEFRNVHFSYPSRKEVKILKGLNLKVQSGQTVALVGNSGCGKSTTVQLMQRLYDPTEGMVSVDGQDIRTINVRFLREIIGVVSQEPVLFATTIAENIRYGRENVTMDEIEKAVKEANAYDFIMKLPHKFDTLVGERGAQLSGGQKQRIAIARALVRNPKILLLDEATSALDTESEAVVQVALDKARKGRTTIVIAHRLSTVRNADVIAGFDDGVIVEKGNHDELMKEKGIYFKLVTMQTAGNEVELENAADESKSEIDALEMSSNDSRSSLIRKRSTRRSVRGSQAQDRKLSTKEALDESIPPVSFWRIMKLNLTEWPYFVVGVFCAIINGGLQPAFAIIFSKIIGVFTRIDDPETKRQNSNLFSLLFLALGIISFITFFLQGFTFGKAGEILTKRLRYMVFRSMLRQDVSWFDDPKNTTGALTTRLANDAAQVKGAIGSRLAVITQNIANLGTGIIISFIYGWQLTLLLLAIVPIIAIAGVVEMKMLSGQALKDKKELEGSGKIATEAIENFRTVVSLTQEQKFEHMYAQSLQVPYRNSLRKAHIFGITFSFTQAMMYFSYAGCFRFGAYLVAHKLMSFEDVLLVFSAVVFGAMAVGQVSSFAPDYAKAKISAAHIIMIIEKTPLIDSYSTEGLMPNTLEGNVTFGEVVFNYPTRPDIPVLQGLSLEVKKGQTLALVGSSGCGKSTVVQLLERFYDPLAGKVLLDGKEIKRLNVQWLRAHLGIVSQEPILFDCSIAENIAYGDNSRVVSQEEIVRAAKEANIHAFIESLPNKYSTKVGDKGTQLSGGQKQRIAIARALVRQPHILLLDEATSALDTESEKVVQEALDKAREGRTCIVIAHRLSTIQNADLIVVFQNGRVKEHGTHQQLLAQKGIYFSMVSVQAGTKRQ

efflux transporter substrate status [1] | apical to basolateral transport [1, 4] | basolateral to apical transport [1, 4] | uptake of labeled ascorbic acid as concentration of unlabeled ascorbic acid increased ([2]; cells induced to express SVCT2, ^3H-ascorbic acid substrate, FIG. 2) | IC50 ([2]; inhibition of radiolabeled ascorbic acid uptake, HEK-TREx-hSVCT2 cells induced to express hSVCT2) | Direct Uptake Vmax [3] | SMILES
substrate of PgP | strongly increased | strongly decreased |  |  |  | CC[C@]1(O)C[C@@H]2CN(CCc3c([nH]c4ccccc34)[C@@](C(=O)OC)(c3cc4c(cc3OC)N(C)[C@H]3[C@@](O)(C(=O)OC)[C@H](OC(C)=O)[C@]5(CC)C=CCN6CC[C@]43[C@@H]65)C2)C1 [^3H-vinblastine]
 |  |  | decreased | 55 µM | 21 pmol/min/well | O=C1O[C@H]([C@@H](O)CO)C(O)=C1O [Ascorbic Acid]

— patent publication US7625718B2, “SVCT2 transporters expressed in blood brain barrier cells” (XenoPort, Inc., priority 2005, dated 2009)
